Assay results as given in patent US20110288036A1, “Methods for Treating or Preventing Vascular Graft Failure” (priority 2010, published 2011).
“Also recorded” adds a separate entry of the source.

Assays:
[1] = target: T1, MKK4 (Mus musculus, UniProt P47809); assay: MKK4 radiometric kinase assay; format: biochemical; details: peptide 100 μM
T1 construct: purchased Millipore (KinaseProfiler service)
Source text: (§1) A commercial radiometric assay service was used to test the specificity and potency of MMI-0100 ([…]; SEQ ID NO: 1) by measuring its half maximal inhibitory concentrations (IC50). This quantitative assay measures how much MK2 inhibitor (MMI-0100; […] (SEQ ID NO: 1)) is needed to inhibit 50% of a given biological process or component of a process (i.e., an enzyme, cell, or cell receptor). Specifically, in these assays, a positively charged substrate is phosphorylated with a radiolabeled phosphate group from an ATP if the kinase is not inhibited by an inhibitor peptide. The positively charged substrate then is attracted to a negatively charged filter membrane, quantified with a scintillation counter, and compared to a 100% activity control. ATP concentrations within 15 μM of the apparent Km for ATP were chosen since an ATP concentration near the Km may allow for the kinases to have the same relative amount of phosphorylation activity. The individual conditions for each radiometric assay are as follows.
The reaction was initiated by the addition of the MgATP. After incubation for 40 minutes at room temperature, 5 μl of the incubation mix was used to initiate the JNK radiometric assay described above.
IC50 values for inhibitor peptides were determined using Millipore's IC50 Profiler Express service. The IC50 value was estimated from a 10-point curve of one-half log dilutions. […]

[2] = Observation of toxicity, tissue erosion or necrosis
[3] = test system: P38MAPK; assay: p38 MAPK radiometric kinase assay; format: biochemical; details: peptide 100 μM
Source text: as §1, with “ATP concentrations within 15 μM of the apparent Km for ATP were chosen since an ATP concentration near the Km may allow for the kinases to have the same relative amount of phosphorylation activity. The individual conditions for each radiometric assay are as follows.” left out
For the p38 MAPK (p38 Mitogen-Activated Protein Kinase) radiometric assay, 5-10 mU of p38 MAPK was incubated with 25 mM Tris pH 7.5, 0.02 mM EGTA, 0.33 mg/mL myelin basic protein (a substrate for p38 MAPK), 10 mM MgAcetate, and 10 μM of [y-^33P-ATP] in the final reaction volume of 25 μl. […] The washed P30 filtermat was dried and its radioactivity was measured by scintillation counter.
(§2) IC50 values for inhibitor peptides were determined using Millipore's IC50 Profiler Express service. […]

[4] = test system: human coronary artery endothelial cells (HCAEC); assay: IL-6 and IL-8 ELISA in TNF-α-stimulated HCAEC; format: cell-based; details: 0.5 mM, 24 hours after 6 hour TNF-α
Protocol: Primary human coronary artery endothelial cells (HCAEC) were cultured and seeded onto a 96-well plate, using methods described in the MTS proliferation assay above. Cells were again stimulated with 20 ng/ml of TNF-α for 6 hours and then treated with MMI-0100 (SEQ ID NO: 1) for approximately 24 hours. Supernatants were then collected and analyzed for drug effect on inflammatory cytokines.
IL-6 (Cat #: 900-K16; Lot #: 0909016) and IL-8 (Cat #: 900-K18; Lot #: 0209018) ELISA kits (Peprotech; Rocky Hill, N.J.) were used to measure levels of these cytokines from HCAEC supernatants following treatment with MMI-0100 ([…]; SEQ ID NO: 1). The Human IL-6 ELISA development kit contains the key components required for the quantitative measurement of natural and/or recombinant hIL-6 in a sandwich ELISA format within the range of 32-2000 pg/ml. Human IL-8 ELISA development kit contains the key components required for the quantitative measurement of natural and/or recombinant hIL-8 in a sandwich ELISA format within the range of 16-1000 pg/ml. […]
Briefly, 10 μl of supernatant was diluted with 90 μl of diluents; 3 replicates of each sample were used. Data were collected at 405 nm with correction at 650 nm on a plate reader. Each plate was monitored for 1 hour with readings taken every 5 minutes. Concentrations of IL-6 and IL-8 in test samples were determined by extrapolating from a standard curve. […]

[5] = test system: JNK; assay: JNK radiometric kinase assay; format: biochemical; details: peptide 100 μM
Source text: as §1, with “The individual conditions for each radiometric assay are as follows.” left out
For the JNK (c-Jun N-terminal Kinase) radiometric assay, 5-10 mU of JNK was incubated with 50 mM Tris pH 7.5, 0.1 mM EGTA, 0.1% b-mercaptoethanol, 3 μM ATF2 (a substrate for JNK), 10 mM MgAcetate, and 10 μM of [y-^33P-ATP] in the final reaction volume of 25 μl. […] The washed P30 filtermat was dried and its radioactivity was measured by scintillation counter.
as §2

T1 sequence (P47809 whole entry): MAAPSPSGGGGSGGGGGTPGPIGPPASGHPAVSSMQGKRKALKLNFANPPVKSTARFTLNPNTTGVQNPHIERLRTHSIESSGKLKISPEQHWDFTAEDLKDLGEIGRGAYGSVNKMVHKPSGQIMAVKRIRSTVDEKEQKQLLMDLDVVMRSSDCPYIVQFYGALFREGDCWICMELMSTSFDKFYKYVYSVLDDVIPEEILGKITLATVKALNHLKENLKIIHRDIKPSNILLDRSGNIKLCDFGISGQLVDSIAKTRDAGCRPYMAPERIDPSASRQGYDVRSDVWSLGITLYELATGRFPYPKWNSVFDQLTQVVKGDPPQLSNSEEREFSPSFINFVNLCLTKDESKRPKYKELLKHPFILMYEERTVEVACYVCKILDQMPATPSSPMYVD

Sequence: YARAAARQARAKALARQLGVAA [MMI-0100]
- Percent Activity, MKK4 [1]: 90%
- evidence of toxicity, tissue erosion, or necrosis [2]: did not show any evidence of toxicity, tissue erosion, or necrosis
- Percent Activity, P38MAPK [3]: 60%
- TNF-α-induced IL-6 expression [4]: reduced the level of TNF-α-induced IL-6 expression to that of the untreated control
- TNF-α-induced IL-8 expression [4]: did not affect the level of TNF-α-induced IL-8 expression; also recorded: no effect
- Percent Activity, JNK [5]: 92%
